The structures appear in SMILES notation. pIC50: −log10 of the molar value. “Also recorded” adds a separate entry of the source. Where two headings read alike, the source gives them in different places. Some results are limits rather than exact numbers.

The term pIC50 denotes the IC50 on a negative log10 scale, so that one unit is a factor of ten.

Data set [1] has as its system human megakaryocyte progenitors. As to the kind of experiment: Growth of human megakaryocyte progenitors (surrogate assay for platelet depletion). As to conditions: 0.1, 1, 10 and 20 μM, relative to DMSO treated cells. Type of data set: cell-based. The procedure:
Compounds of the invention were evaluated for their effect on the growth of human megakaryocyte progenitors (surrogate assay for platelet depletion). Human CD34+ cells were grown in a collagen-based gel (Megacult-C, Stemcell Technologies). […] 100% indicates no difference in cell viability relative to the DMSO treated cells. […] This is the desired effect.

A further data set concerns the target HDAC2 (Homo sapiens (Human), UniProt Q92769). As to the kind of experiment: Tm shift. Type of data set: binding.
For a further data set, the target named is HDAC4 (Homo sapiens (Human), UniProt P56524). As to the kind of experiment: Caliper HDAC enzymatic endpoint assay, HDAC4. The note with it: Table 2C; read-out: HDAC4 IC50 after 0 hr preincubation. Type of data set: biochemical.
For the next data set, the system named is dopaminergic signaling. As to the kind of experiment: Amphetamine-induced hyperactivity (AIH). Type of data set: in vivo. The note with it: mice, 10 mg/kg once daily, data 18-24 h after the 7th dose. The procedure: Compounds of the invention were evaluated for their ability to influence dopaminerigic signaling according to the following procedure. Mice were dosed once daily with 10 mg/kg of compound 1. Data collected 18-24 h after the 7th dose. Amphetamine-induced hyperactivity (AIH) was examined in eight identical open-field chambers (16.5″×16″×12″; AccuScan Instruments, Columbus, Ohio). Activity was detected by infrared beam breaks and recorded automatically by VersaMax software (AccuScan). Daily sessions were automatically binned in 5 minute intervals (VersaDat; AccuSacn) for statistical analysis. AIH was run over three consecutive days as follows:
Day 1: Habituation: Mice were placed into the open-field for 20 minutes and then removed for a saline injection. Mice were placed back into the open-field for an additional 30 minutes, at which point the mice were returned to their home cage.
Day 2: Baseline Motor Activity: This phase was run identically to Day 1, with the exception that the second day lasted for one hour (20 minutes pre-injection; 40 minutes post-injection).
Day 3: Amphetamine Challenge: Mice were placed in the open-field. After 20 minutes, mice were removed and challenged with amphetamine, and placed back in the open-field for 80 minutes.
**Note: All HDAC inhibitor treatments occurred 18-25 hours prior to behavioral testing. […]

For another data set, the target named is HDAC1 (Homo sapiens (Human), UniProt Q13547). As to the kind of experiment: Caliper HDAC enzymatic endpoint assay, HDAC1. It counts as biochemical.
A further data set relates to INS-1E cells. As to the kind of experiment: Cytokine-induced beta-cell apoptosis, caspase-3 activity assay. It counts as cell-based, rat. As to the method: Compounds of the invention were evaluated for their ability to suppress cytokine-induced beta-cell apoptosis and palmitate and/or glucose-induced beta-cell apoptosis by inhibition of HDAC3. Assay protocols were as follows: Cell culture and reagents. […] Recombinant IL-1β, IFN-γ, and TNF-α were purchased from R&D Systems. Palmitate, D-glucose and fatty acids-free low endotoxin BSA were purchased from Sigma. Palmitate was solubilized in 90% ethanol, heated to 60° C. and used 1:100 dilution in media. Caspase-Glo 3/7 was from Promega and 3-(4,5-dimethylthiazol-2-yl)-2,5-diphenyltetrazolium bromide (MTT) was from Calbiochem. Antibodies for HDAC1, HDAC2, HDAC3, pJNK, JNK cleaved caspase-9 and secondary horseradish-peroxidase conjugated goat anti-mouse and anti-rabbit antibodies were from Cell Signaling. Antibody for beta-actin was from Sigma and antibody against CHOP (GADD153) from Abcam. HDAC inhibitors were purchased from Selleck Chemicals or synthesized in-house. Primers were from Integrated DNA Technologies, High Capacity cDNA RT kit and SYBR green master mix were purchased from Applied Biosystems. INS-1E cells were seeded at 5,000 cells/well using a Multidrop Combi (Thermo Labsystems) in white optical 384-well plates (Corning Life Sciences). After overnight incubation, medium was removed and 50 μL RPMI containing the treated compound, 1% FBS and either a combination of cytokines (10 ng/mL IL-1β, 50 ng/mL IFN-γ, 25 ng/mL TNF-α) or 0.5 mM sodium palmitate was added to every well. After two-day treatment, medium was removed and 20 μL Caspase-Glo 3/7 reagent was added. Luminescence was measured after a two-hour incubation using an Envision plate reader (PerkinElmer). […] The rat INS-1E cell line was simultaneously treated for 48 hours with a combination of pro-inflammatory cytokines IL-1β, IFN-γ, and TNF-α, and the indicated test compounds. […] Compound 9, a negative control, had no effect. […] FIGS. 9C and 9D show a dose-response analysis of HDAC inhibition in suppression of cytokine-induced beta-cell apoptosis. […] This could translate to a larger therapeutic window. […]

Data set [2] concerns HDACs 1, 2, 3, 4, 5, 6, 7, 8, and 9. As to the kind of experiment: HDAC selectivity panel (Caliper), isoform selectivity. The note with it: from IC50 values.
The nature of data set [3]: Fear conditioning assay in normal animals. It counts as in vivo. As to conditions: wild type normal mouse, single dose. From the text:
In one aspect, the invention provides methods and compositions for promoting cognitive function and enhancing learning and memory formation in both normal subjects as well as those suffering from memory loss and cognitive function disorders/impairments. […] A normal subject, as used herein, is a subject that has not been diagnosed with a disorder associated with impaired cognitive function. “Cognitive function” refers to mental processes of a subject relating to information gathering and/or processing; the understanding, reasoning, and/or application of information and/or ideas; the abstraction or specification of ideas and/or information; acts of creativity, problem-solving, and possibly intuition; and mental processes such as learning, perception, and/or awareness of ideas and/or information. The mental processes are distinct from those of beliefs, desires, and the like.

For the next data set, the target named is HDAC8 (Homo sapiens (Human), UniProt Q9BY41). As to the kind of experiment: Caliper HDAC enzymatic endpoint assay, HDAC8. It counts as biochemical. The note with it: Table 2C; read-out: HDAC8 IC50 after 0 hr preincubation.
Chain of HDAC8 (Q9BY41 whole entry): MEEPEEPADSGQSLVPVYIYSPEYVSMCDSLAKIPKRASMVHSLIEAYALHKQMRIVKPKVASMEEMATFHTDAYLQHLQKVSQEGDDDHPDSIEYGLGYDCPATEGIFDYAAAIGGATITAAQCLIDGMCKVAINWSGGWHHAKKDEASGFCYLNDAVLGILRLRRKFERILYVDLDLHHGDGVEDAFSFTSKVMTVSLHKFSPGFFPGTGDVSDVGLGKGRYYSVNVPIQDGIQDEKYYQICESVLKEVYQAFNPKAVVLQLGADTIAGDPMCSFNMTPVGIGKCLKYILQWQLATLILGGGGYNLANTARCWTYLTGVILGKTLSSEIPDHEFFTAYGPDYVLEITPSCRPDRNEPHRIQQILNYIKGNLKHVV

Chain of HDAC1 (Q13547 whole entry): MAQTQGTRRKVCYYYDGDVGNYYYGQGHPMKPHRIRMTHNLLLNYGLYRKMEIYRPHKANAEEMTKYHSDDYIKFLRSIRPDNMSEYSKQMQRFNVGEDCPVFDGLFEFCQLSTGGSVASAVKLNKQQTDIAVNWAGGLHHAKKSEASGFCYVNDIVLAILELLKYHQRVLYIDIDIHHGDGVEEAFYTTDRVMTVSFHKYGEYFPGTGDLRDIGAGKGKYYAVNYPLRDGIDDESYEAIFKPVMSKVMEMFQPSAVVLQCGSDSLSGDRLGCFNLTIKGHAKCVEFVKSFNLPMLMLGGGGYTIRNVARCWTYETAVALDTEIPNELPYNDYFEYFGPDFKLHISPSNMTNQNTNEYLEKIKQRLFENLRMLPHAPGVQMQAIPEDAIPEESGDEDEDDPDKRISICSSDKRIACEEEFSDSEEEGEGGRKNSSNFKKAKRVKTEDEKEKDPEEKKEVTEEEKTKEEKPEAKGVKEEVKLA
Chain of HDAC2 (Q92769 whole entry): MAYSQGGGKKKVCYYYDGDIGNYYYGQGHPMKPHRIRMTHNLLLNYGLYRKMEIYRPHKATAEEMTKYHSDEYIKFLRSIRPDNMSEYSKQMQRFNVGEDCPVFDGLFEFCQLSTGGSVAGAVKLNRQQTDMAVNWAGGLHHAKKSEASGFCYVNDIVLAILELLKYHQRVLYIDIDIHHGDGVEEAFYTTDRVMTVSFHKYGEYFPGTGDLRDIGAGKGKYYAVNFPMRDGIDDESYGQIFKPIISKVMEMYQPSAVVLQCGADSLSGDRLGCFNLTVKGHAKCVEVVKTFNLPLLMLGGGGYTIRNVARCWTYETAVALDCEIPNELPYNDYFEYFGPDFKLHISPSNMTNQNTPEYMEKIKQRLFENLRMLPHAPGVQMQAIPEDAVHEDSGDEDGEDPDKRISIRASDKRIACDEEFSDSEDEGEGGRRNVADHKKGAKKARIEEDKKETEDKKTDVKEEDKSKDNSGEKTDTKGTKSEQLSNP
Chain of HDAC4 (P56524 whole entry): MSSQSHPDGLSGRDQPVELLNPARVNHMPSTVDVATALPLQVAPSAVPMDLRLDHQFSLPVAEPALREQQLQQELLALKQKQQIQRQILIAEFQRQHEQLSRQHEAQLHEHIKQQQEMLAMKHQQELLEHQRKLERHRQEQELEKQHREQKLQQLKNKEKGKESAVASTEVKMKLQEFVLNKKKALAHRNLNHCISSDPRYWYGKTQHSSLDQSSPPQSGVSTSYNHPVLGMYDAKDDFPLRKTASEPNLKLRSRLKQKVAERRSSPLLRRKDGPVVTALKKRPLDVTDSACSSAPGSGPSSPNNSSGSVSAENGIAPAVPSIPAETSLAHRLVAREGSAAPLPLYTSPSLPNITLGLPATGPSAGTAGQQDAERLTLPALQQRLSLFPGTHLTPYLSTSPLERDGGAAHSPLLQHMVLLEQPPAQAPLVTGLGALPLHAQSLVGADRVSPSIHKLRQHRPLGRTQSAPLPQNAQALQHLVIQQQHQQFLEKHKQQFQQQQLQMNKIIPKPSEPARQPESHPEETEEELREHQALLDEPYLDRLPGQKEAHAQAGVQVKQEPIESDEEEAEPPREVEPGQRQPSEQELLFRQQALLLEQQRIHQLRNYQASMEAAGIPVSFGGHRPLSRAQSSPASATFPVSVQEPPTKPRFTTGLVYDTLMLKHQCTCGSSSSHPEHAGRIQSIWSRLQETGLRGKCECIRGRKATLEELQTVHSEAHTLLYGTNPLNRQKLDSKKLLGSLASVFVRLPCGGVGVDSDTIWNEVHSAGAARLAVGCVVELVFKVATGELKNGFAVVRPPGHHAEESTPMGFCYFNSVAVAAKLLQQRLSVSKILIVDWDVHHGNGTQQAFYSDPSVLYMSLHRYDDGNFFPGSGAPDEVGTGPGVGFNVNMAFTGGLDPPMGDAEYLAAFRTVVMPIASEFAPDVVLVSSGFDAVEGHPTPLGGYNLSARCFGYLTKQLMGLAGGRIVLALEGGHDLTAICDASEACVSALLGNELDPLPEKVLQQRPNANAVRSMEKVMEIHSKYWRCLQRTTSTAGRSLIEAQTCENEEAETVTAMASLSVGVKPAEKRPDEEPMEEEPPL
Procedure for HDAC1: Substrate A was prepared as 2 mM in DMSO. Its final concentration in the assay for HDACs 1, 2, 3, 6 is 2 μM.
Below is the HDAC and Substrate concentration used in this assay.
Procedure for HDAC4: (§1) The Caliper HDAC Assay Buffer (acronym HAB, 1 liter) was prepared as follows:
(§2) Substrate B was prepared as 2 mM in 100% DMSO. Its final concentration in the assay for HDACs 4, 5, 7, 8, 9 is 2 μM.
(§3) LBH was used as quench inhibitor to stop the reaction at the end point.
IC50 values are in micromolar.
Procedure for HDAC8: as §1, §2, §3
IC50 values are in micromolar.

Take `CC(=O)Nc1ccc(C(=O)Nc2ccc(F)cc2N)cc1` [Compound 1, 4-acetamido-N-(2-amino-4-fluorophenyl)benzamide]: in [1], the “effect on growth and viability of human megakaryocyte progenitor cells” value is “does not significantly inhibit cell growth; also recorded: no significant effect on growth and viability”. Moreover, the Tm shift at HDAC2 is 2.7 °C. The negative logarithm of the IC50 (pIC50) on HDAC4 is under 4.48; at HDAC1 (read-out: HDAC1 IC50 3 h Prein, Table 2, 3 h preincubation), 5.90; on HDAC1 (read-out: HDAC1 IC50 3 h Preinc, Table 2A, 3 h preincubation), 5.90; on HDAC1 (read-out: HDAC1 IC50 @3 hr, 3 hr preincubation), 5.90; on HDAC8, under 4.48. Also, in the data set with dopaminergic signaling, the “effect on amphetamine-induced hyperactivity” value is reported as “potentiates”. Besides, the “suppression of cytokine-induced beta-cell apoptosis (caspase activity)” value in the data set with INS-1E cells (IL-1β, IFN-γ, TNF-α, 48 hours, 5 μM compound) is given as “as effective at suppressing cyctokine-induced beta-cell apoptosis as CI-994”. Further, the “suppression of caspase-3 activity, comparison of compounds” value with INS-1E cells (cytokines, 0.1-10 μM, dose dependent) was “more effective at suppressing caspase-3 activity”. For the same compound, the “HDAC isoform selectivity” value in [2] is “HDAC3 selective compound”. For the same compound, the “effect in fear conditioning assay” value in data set [3] is “no effect was observed”.

The values are drawn from patent US11377423B2, “Inhibitors of histone deacetylase” (The Broad Institute, Inc., priority 2012, dated 2022).
